The values that follow are results of earlier work, collected in patent US10675364B2, “Rhodol fluorophores for near-infrared imaging” (The Board of Trustees of the Leland Stanford Junior …, priority 2015, dated 2020).

The conditions of the data set: highly sensitive to pH in the physiological range.

Take `O=C1OC2(c3ccc(O)cc3Oc3cc(O)ccc32)c2ccccc21` [fluorescein]: the pKa (usually the negative logarithm of the acid dissociation constant) is reported as 6.3.
